Test results from ChEMBL document CHEMBL4033677, “Design and synthesis of pyrazolo[3,4-d]pyrimidines: Nitric oxide releasing compounds targeting hepatocellular carcinoma” (Bioorg Med Chem, 2017).

Legend:
Assay type in all cases: functional
[1] = tested on: UO-31; assay: Growth inhibition of human UO31 cells assessed as cell growth at 10^-5 M incubated for 48 hrs by sulforhodamine B assay relative to control; conditions: UO-31, 48 h, read-out: Activity
[2] = tested on: Hs-578T; assay: Growth inhibition of human Hs 578T cells assessed as cell growth at 10^-5 M incubated for 48 hrs by sulforhodamine B assay relative to control; conditions: read-out: Activity
[3] = tested on: SR; assay: Growth inhibition of human SR cells assessed as cell growth at 10^-5 M incubated for 48 hrs by sulforhodamine B assay relative to control; conditions: read-out: Activity
[4] = tested on: OVCAR-3; assay: Growth inhibition of human OVCAR3 cells assessed as cell growth at 10^-5 M incubated for 48 hrs by sulforhodamine B assay relative to control; conditions: OVCAR-3, 48 h, read-out: Activity
[5] = tested on: SF-268; assay: Growth inhibition of human SF268 cells assessed as cell growth at 10^-5 M incubated for 48 hrs by sulforhodamine B assay relative to control; conditions: SF-268, 48 h, read-out: Activity
[6] = tested on: HCC 2998; assay: Growth inhibition of human HCC2998 cells assessed as cell growth at 10^-5 M incubated for 48 hrs by sulforhodamine B assay relative to control; conditions: HCC 2998, 48 h, read-out: Activity
[7] = tested on: NCI-H460; assay: Growth inhibition of human NCI-H460 cells assessed as cell growth at 10^-5 M incubated for 48 hrs by sulforhodamine B assay relative to control; conditions: NCI-H460, 48 h, read-out: Activity
[8] = tested on: NCI-H522; assay: Growth inhibition of human NCI-H522 cells assessed as cell growth at 10^-5 M incubated for 48 hrs by sulforhodamine B assay relative to control; conditions: NCI-H522, 48 h, read-out: Activity
[9] = tested on: NCI/ADR-RES; assay: Growth inhibition of human NCI/ADR-RES cells assessed as cell growth at 10^-5 M incubated for 48 hrs by sulforhodamine B assay relative to control; conditions: read-out: Activity
[10] = tested on: DU-145; assay: Growth inhibition of human DU145 cells assessed as cell growth at 10^-5 M incubated for 48 hrs by sulforhodamine B assay relative to control; conditions: DU-145, 48 h, read-out: Activity
[11] = tested on: MOLT-4; assay: Growth inhibition of human MOLT4 cells assessed as cell growth at 10^-5 M incubated for 48 hrs by sulforhodamine B assay relative to control; conditions: MOLT-4, 48 h, read-out: Activity
[12] = tested on: U-251; assay: Growth inhibition of human U251 cells assessed as cell growth at 10^-5 M incubated for 48 hrs by sulforhodamine B assay relative to control; conditions: U-251, 48 h, read-out: Activity
[13] = tested on: SK-OV-3; assay: Growth inhibition of human SKOV3 cells assessed as cell growth at 10^-5 M incubated for 48 hrs by sulforhodamine B assay relative to control; conditions: SK-OV-3, 48 h, read-out: Activity
[14] = tested on: SN12C; assay: Growth inhibition of human SN12C cells assessed as cell growth at 10^-5 M incubated for 48 hrs by sulforhodamine B assay relative to control; conditions: read-out: Activity
[15] = tested on: MDA-MB-435; assay: Growth inhibition of human MDA-MB-435 cells assessed as cell growth at 10^-5 M incubated for 48 hrs by sulforhodamine B assay relative to control; conditions: MDA-MB-435, 48 h, read-out: Activity
[16] = tested on: Malme-3M; assay: Growth inhibition of human MALME-3M cells assessed as cell growth at 10^-5 M incubated for 48 hrs by sulforhodamine B assay relative to control; conditions: read-out: Activity
[17] = tested on: CAKI-1; assay: Growth inhibition of human Caki1 cells assessed as cell growth at 10^-5 M incubated for 48 hrs by sulforhodamine B assay relative to control; conditions: CAKI-1, 48 h, read-out: Activity
[18] = tested on: K562; assay: Growth inhibition of human K562 cells assessed as cell growth at 10^-5 M incubated for 48 hrs by sulforhodamine B assay relative to control; conditions: K562, 48 h, read-out: Activity
[19] = tested on: SK-MEL-28; assay: Growth inhibition of human SK-MEL-28 cells assessed as cell growth at 10^-5 M incubated for 48 hrs by sulforhodamine B assay relative to control; conditions: SK-MEL-28, 48 h, read-out: Activity
[20] = tested on: OVCAR-5; assay: Growth inhibition of human OVCAR5 cells assessed as cell growth at 10^-5 M incubated for 48 hrs by sulforhodamine B assay relative to control; conditions: OVCAR-5, 48 h, read-out: Activity
[21] = tested on: M14; assay: Growth inhibition of human M14 cells assessed as cell growth at 10^-5 M incubated for 48 hrs by sulforhodamine B assay relative to control; conditions: M14, 48 h, read-out: Activity
[22] = tested on: SK-MEL-2; assay: Growth inhibition of human SK-MEL-2 cells assessed as cell growth at 10^-5 M incubated for 48 hrs by sulforhodamine B assay relative to control; conditions: SK-MEL-2, 48 h, read-out: Activity
[23] = tested on: NCI-H23; assay: Growth inhibition of human NCI-H23 cells assessed as cell growth at 10^-5 M incubated for 48 hrs by sulforhodamine B assay relative to control; conditions: NCI-H23, 48 h, read-out: Activity
[24] = tested on: RXF 393; assay: Growth inhibition of human RXF393 cells assessed as cell growth at 10^-5 M incubated for 48 hrs by sulforhodamine B assay relative to control; conditions: RXF 393, 48 h, read-out: Activity
[25] = tested on: TK-10; assay: Growth inhibition of human TK10 cells assessed as cell growth at 10^-5 M incubated for 48 hrs by sulforhodamine B assay relative to control; conditions: TK-10, 48 h, read-out: Activity
[26] = tested on: COLO 205; assay: Growth inhibition of human COLO205 cells assessed as cell growth at 10^-5 M incubated for 48 hrs by sulforhodamine B assay relative to control; conditions: COLO 205, 48 h, read-out: Activity
[27] = tested on: BT-549; assay: Growth inhibition of human BT549 cells assessed as cell growth at 10^-5 M incubated for 48 hrs by sulforhodamine B assay relative to control; conditions: BT-549, 48 h, read-out: Activity
[28] = tested on: HL-60(TB); assay: Growth inhibition of human HL-60(TB) cells assessed as cell growth at 10^-5 M incubated for 48 hrs by sulforhodamine B assay relative to control; conditions: HL-60, 48 h, read-out: Activity
[29] = tested on: SK-MEL-5; assay: Growth inhibition of human SK-MEL-5 cells assessed as cell growth at 10^-5 M incubated for 48 hrs by sulforhodamine B assay relative to control; conditions: SK-MEL-5, 48 h, read-out: Activity
[30] = tested on: SF-539; assay: Growth inhibition of human SF539 cells assessed as cell growth at 10^-5 M incubated for 48 hrs by sulforhodamine B assay relative to control; conditions: SF-539, 48 h, read-out: Activity
[31] = tested on: OVCAR-4; assay: Growth inhibition of human OVCAR4 cells assessed as cell growth at 10^-5 M incubated for 48 hrs by sulforhodamine B assay relative to control; conditions: OVCAR-4, 48 h, read-out: Activity
[32] = tested on: HT-29; assay: Growth inhibition of human HT-29 cells assessed as cell growth at 10^-5 M incubated for 48 hrs by sulforhodamine B assay relative to control; conditions: HT-29, 48 h, read-out: Activity

| SMILES | growth at 10 µM [1] [%] | growth at 10 µM [2] [%] | growth at 10 µM [3] [%] | growth at 10 µM [4] [%] | growth at 10 µM [5] [%] | growth at 10 µM [6] [%] | growth at 10 µM [7] [%] | growth at 10 µM [8] [%] | growth at 10 µM [9] [%] | growth at 10 µM [10] [%] | growth at 10 µM [11] [%] | growth at 10 µM [12] [%] | growth at 10 µM [13] [%] | growth at 10 µM [14] [%] | growth at 10 µM [15] [%] | growth at 10 µM [16] [%] | growth at 10 µM [17] [%] | growth at 10 µM [18] [%] | growth at 10 µM [19] [%] | growth at 10 µM [20] [%] | other results |
| --- | --- | --- | --- | --- | --- | --- | --- | --- | --- | --- | --- | --- | --- | --- | --- | --- | --- | --- | --- | --- | --- |
| Cc1nc(Nc2ccc(OCCCBr)cc2)c2cnn(-c3ccccc3)c2n1 | 88.2 | 82.6 | 85.2 | 106 | 86.9 | 103 | 95.1 | 81.6 | 92.1 | 106 | 93.6 | 81.4 | 82.9 | 91.8 | 107 | 98.2 | 93.6 | 102 | 107 | 100 | growth at 10 µM [21]: 94.5%; growth at 10 µM [22]: 98%; growth at 10 µM [23]: 90.7%; growth at 10 µM [24]: 104%; growth at 10 µM [25]: 113%; growth at 10 µM [26]: 106%; growth at 10 µM [27]: 92.9%; growth at 10 µM [28]: 97.6%; growth at 10 µM [29]: 96.2%; growth at 10 µM [30]: 92.5%; growth at 10 µM [31]: 94.3%; growth at 10 µM [32]: 96.6% |
| BrCCCOc1ccc(Nc2ncnc3c2cnn3-c2ccccc2)cc1 | 75.8 | 101 | 82.6 | 97 | 86 | 108 | 107 | 78.4 | 98.3 | 108 | 83.6 | 94.6 | 90.2 | 94 | 101 | 112 | 98.2 | 105 | 107 | 104 | growth at 10 µM [21]: 100%; growth at 10 µM [22]: 98%; growth at 10 µM [23]: 91.5%; growth at 10 µM [24]: 105%; growth at 10 µM [25]: 128%; growth at 10 µM [26]: 103%; growth at 10 µM [27]: 93.4%; growth at 10 µM [28]: 95.8%; growth at 10 µM [29]: 93%; growth at 10 µM [30]: 92.5%; growth at 10 µM [31]: 93.3%; growth at 10 µM [32]: 99.4% |
| Cc1nc(Nc2ccc(OCCCBr)cc2)c2c(C)nn(-c3ccccc3)c2n1 | 95.7 | 97.3 | 74.6 | 107 | 93.8 | 107 | 113 | 76.1 | 107 | 109 | 92 | 90.5 | 96 | 78.8 | 100 | 107 | 94.8 | 100 | 105 | 91.4 | growth at 10 µM [21]: 94%; growth at 10 µM [22]: 91.5%; growth at 10 µM [23]: 97.5%; growth at 10 µM [24]: 97.9%; growth at 10 µM [25]: 94.5%; growth at 10 µM [26]: 108%; growth at 10 µM [27]: 91.6%; growth at 10 µM [28]: 96.2%; growth at 10 µM [29]: 96.1%; growth at 10 µM [30]: 98.3%; growth at 10 µM [31]: 99.5%; growth at 10 µM [32]: 93.7% |
| Cc1nn(-c2ccccc2)c2ncnc(Nc3ccc(OCCCBr)cc3)c12 | 92.4 | 111 | 81.4 | 103 | 103 | 107 | 123 | 45.6 | 102 | 108 | 83.7 | 89 | 81 | 95.2 | 100 | 106 | 92.1 | 100 | 101 | 103 | growth at 10 µM [21]: 91.3%; growth at 10 µM [22]: 84%; growth at 10 µM [23]: 99%; growth at 10 µM [24]: 102%; growth at 10 µM [25]: 89.9%; growth at 10 µM [26]: 105%; growth at 10 µM [27]: 97.8%; growth at 10 µM [28]: 104%; growth at 10 µM [29]: 86.6%; growth at 10 µM [30]: 96%; growth at 10 µM [31]: 99.6%; growth at 10 µM [32]: 58.2% |
